Test system: pseudovirus containing S protein mutations D614G, E484K, United Kingdom, South African, Brazilian
Format: cell-based, SARS-CoV-2

“rhCHI3L1: recombinant human CHI3L1 from a commercial source (R&D Inc.) or generated at Brown University” was tested, and the “cellular integration of Spike proteins of SARS-Cov2 (% of GFP positive cells, FACS)” value was “stimulated”.
